Measured values: patent US20070014786A1, “Methods for treating taxol-induced gut disorder” (RINAT NEUROSCIENCE CORP., priority 2003, published 2007)

Legend:
[1] = tested on: Female Swiss-Webster mice; experiment: Taxol-induced gut disorder mouse model: intestinal hypertrophy (weight and length of GI tract) and autopsy; assay type: in vivo
Description: Intestinal hypertrophy was assessed by measuring weight and length of the gastrointestinal (“GI”) tract as follows: animals were sacrificed, and the weight and length of the GI tract was assessed as follows: the entire GI tract was removed, emptied of any contents, and weighed. The GI tract was then separated into stomach, small intestine, and caecum plus large intestine and those parts were individually weighed.
Selected animals were sacrificed and subjected to autopsy. […] Ascites production was not observed in control animals.
Intestinal hypertrophy was assessed as described above. […] Ascites production was not observed in control animals.

[2] = tested on: Female Swiss-Webster mice; experiment: Taxol-induced gut disorder mouse model: abdominal distension score; conditions: second experiment; taxol 300, 375 or 450 mg/m^2; scored weekly
Description: Female Swiss-Webster mice, eight weeks old were treated with vehicle alone (control), taxol alone, or agonist anti-trkC mouse monoclonal antibody 2256 (PCT WO 01/98361; Urfer et al. J. Biol. Chem. (1998) 273:5829-5840)) and taxol. Taxol was obtained from Calbiochem and prepared as a 20 mg/kg solution in Cremophor/ethanol (50:50 w/w), which was diluted with saline (1 part Cremophor/ethanol to four parts saline vol:vol), filtered through a 0.1 micron filter and administered intraperitoneally (“IP”) within 30 minutes of preparation. All treatment animals received one round of three taxol or control (vehicle) treatments every other day for three doses, i.e., day 1, 3 and 5 of the protocol. […] Taxol dose was determined on a mg/m^2 basis, using the formula that body surface area (in square cm) equals 10.5 times the weight in grams to the two-thirds power. […]
Taxol-induced gut disorder was assessed by measuring degree and quality of abdominal distension and intestinal hypertrophy after lifting the individual mouse by the tail. Degree and quality of taxol-induced abdominal distension was scored by a blinded observer using the following five point scale: • 0-no noticeable abdominal bulge • 1-slight bulge • 2-distinct bulge (may be full stomach) • 3-fat mouse • 4-definite lumpy abdomen • 5-swollen abdomen […]

[3] = target: T1, low affinity receptor (LNGFR), p75NTR or p75 (Homo sapiens, UniProt P08138); conditions: according to current knowledge (background); cited from earlier work
T1 sequence (P08138 29-427): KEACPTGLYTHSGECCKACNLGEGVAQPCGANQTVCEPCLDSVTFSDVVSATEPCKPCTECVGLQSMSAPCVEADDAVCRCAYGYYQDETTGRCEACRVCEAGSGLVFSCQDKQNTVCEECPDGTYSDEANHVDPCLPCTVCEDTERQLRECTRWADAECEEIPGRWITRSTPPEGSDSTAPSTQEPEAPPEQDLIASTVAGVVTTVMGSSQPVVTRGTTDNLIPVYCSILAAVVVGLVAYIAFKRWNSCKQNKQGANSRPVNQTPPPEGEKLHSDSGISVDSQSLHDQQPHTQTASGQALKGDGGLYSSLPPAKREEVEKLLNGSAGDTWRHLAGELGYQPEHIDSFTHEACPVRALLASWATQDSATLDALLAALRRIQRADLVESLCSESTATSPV

[4] = taxol 450 mg/m^2 (four weeks) or 375 mg/m^2 (six weeks)

Question: For CC(=O)O[C@H]1C(=O)[C@@]2(C)[C@H]([C@H](OC(=O)c3ccccc3)[C@]3(O)C[C@H](OC(=O)[C@H](O)[C@@H](NC(=O)c4ccccc4)c4ccccc4)C(C)=C1C3(C)C)[C@]1(OC(C)=O)CO[C@@H]1C[C@@H]2O [taxol, paclitaxel], which “length of the GI tract (FIG. 8)” value [1, 4] is on record?
Answer: significant decrease

Question: What about the “raw weight of the caecum plus large intestine (FIG. 9)” value [1, 4] of the same molecule?
Answer: significant increase

Question: What about the “weight of the caecum plus large intestine (FIG. 6)” value ([1]; taxol 450 mg/m^2, four weeks) of the same molecule?
Answer: significant increase

Question: And the “weight of the small intestine (FIG. 5)” value ([1]; taxol 450 mg/m^2, four weeks)?
Answer: significant increase

Question: And the “weight of the GI tract from stomach through colon (FIG. 4)” value ([1]; taxol 450 mg/m^2, sacrificed at four weeks)?
Answer: significant increase

Question: What about the “intestinal obstruction(s) and/or stool softening or diarrhea” value ([1]; taxol-treated animals at autopsy) of the same molecule?
Answer: exhibited intestinal obstruction(s) and/or stool softening or diarrhea

Question: What about the “ascites in the peritoneum at autopsy” value ([1]; taxol-treated animals with abdominal distension, not observed in control animals) of the same molecule?
Answer: Production of ascites in the peritoneum was noted

Question: What about the “gut distension (FIG. 2)” value [2] of the same molecule?
Answer: resulted in gut distension

Question: For nerve growth factor [NGF], which Kd [3] is on record?
Answer: 2 nM

Question: With neurotrophin-3 [NT-3] as the molecule, how does the Kd [3] read?
Answer: 2 nM
